Series [1] is described as follows: Absorption spectra (λmax, molar absorption coefficient). Format: physicochemical. The conditions noted are these: ethanol solutions. Here is the method: Absorption spectra were recorded on a Shimadzu UV-2100 spectrophotometer or with a Carry 50 Biospectrophotometer (Varian, Mulgrave, USA). Fluorescence spectra were measured with a Spex Fluorolog 3 spectrophotometer, with correction for the wavelength dependence system (RCA C31034 photomultiplier), or with a PerkinElmer LS 50 spectrofluorimeter. Transient absorption spectra were measured with an Applied Photophysics LKS 60 nanosecond laser flash photolysis kinetic spectrometer, using the third harmonic of a Spectra-Physics Quanta Ray GCR 130-01 Nd/YAG laser for excitation, a Hamamatsu 1P28 photomultiplier and a Hewlett-Packard Infinium oscilloscope (1 GS/s). Flash photolysis measurements were made in the presence of air and in argon saturated solutions. Photoacoustic calorimetry employed the same Nd/YAG laser, a home-made front-face photoacoustic cell with a 2.25 MHz Panametrics transducer (model 5676) and a Tektronix DSA 601 transient recorder. Room-temperature singlet-oxygen phosphorescence was measured at 1270 nm with a Hamamatsu R5509-42 photomultiplier, cooled to 193 K in a liquid nitrogen chamber (Products for Research model PC176TSCE005), following laser excitation of aerated solutions at 355 nm, using an adapted Applied Photophysics spectrometer. Singlet oxygen emission at 1270 nm was also monitored with a liquid nitrogen-cooled germanium detector (North Coast) coupled to a Tectronix Digitizing scope (TDS 520B), following sample excitation with 5 ns laser pulses of the third harmonic (355 nm) generated by a Q-switched Nd:YAG laser (Continuum Surelite II).
This is indicative of little aggregation between the molecules, which exist mostly as monomers at these concentrations in the solvents studied. Table 1 presents typical red and infrared molar absorption coefficients (εmax) and wavelength maxima. The same table also presents representative fluorescence quantum yields (ΦF) of Luzitins. The fluorescence quantum yields decrease of these molecules decrease in the presence of chlorine substituents, a fingerprint of the heavy atom effect expected for such molecules.

Series [2] is described as follows: Photobleaching under 748 nm diode laser irradiation. Type of series: physicochemical. The conditions noted are these: PBS:methanol; 100 mW laser irradiation at 748 nm. From the text: The irradiation of bacteriochlorins in the photobleaching experiments employed the 748 nm Lynx diode laser. For animal studies we employed a costumer-made Hamamatsu diode laser, type LA0873. S/N M070301, which delivered 140 mW at 748 nm. This diode laser was controlled by a ThorLabs 500 mA ACC/APC Laser Diode Controller and in-house electronics. The laser energies of this and the other higher-energy lasers employed in this work were regularly checked with an Ophir model AN/2E laser power meter.
Photobleaching experiments were conducted in PBS. PBS:methanol (50:50) and methanol solutions. The solutions were irradiated in a cuvette with an optical path of 1 cm and the Lynx diode laser. The initial absorption of the solutions was ca. 0.8. The mechanism of photobleaching was assessed with the irradiation of the sensitizer using the Hamamatsu diode laser at 80 mW. The sensitizer was irradiated in PBS and in the presence of ascorbic acid or azide.
The chemical stability of the compounds was studied exposing them to light, air, and pH changes. The most significant degradation occurs for aerated solutions irradiated by light of the appropriate wavelength. In such circumstances the photobleaching of the compounds follows a first-order rate and is proportional to the energy of the incident laser light. In general, it was also observed that the photobleaching rate increases with the amount of water present in the solution. Bennett reported the photoconversion of Foscan® (m-THPC) and of the analogous bacteriochlorin (m-THPB) in PBS:methanol (50:50). Scherz reported the photoconversion of Tookad® in acetone and Triton-X:PBS [3]. For the purpose of comparing the photostability of Luzitins with that of Foscan® and Tookad®, we present in Table 2 the half-lives (t1/2) of representative drugs described herein, together with those of Foscan and Tookad® normalized for a laser power of 100 mW.
Luzitin-FMet was dissolved in PBS:methanol (2:3), transferred to a 1 cm quartz cell and its absorption spectrum was registered, FIG. 6. The quartz cell was then placed in the beam of the 748 nm Lynx diode laser, previously unfocused to have a beam diameter coincident with the window of the quartz cell. The laser power measured under these conditions was 28.8 mW. Every 5 minutes the irradiation was interrupted and a new absorption spectrum was registered. This procedure was followed for 65 minutes. The photobleaching follows the kinetics of a first-order reaction in the time window of the experiment. […] Whereas the bacteriochlorin peak at 743 nm is reduced from an absorbance of 1.128 to 0.337, the absorption of the chlorin only increases from 0.114 to 0.151. Taking into consideration the molar absorption coefficients of the compounds at these wavelengths, it is clear that whereas 70% of the bacteriochlorin is destroyed during the irradiation, only a few percent of chlorin are formed.
The half-lives of other bacteriochlorins normalized 100 mW laser irradiation at 748 nm are presented in […], together with the literature data for the photodegradation of Foscan® and Tookad® normalized for the same light intensity. It was also observed that the half-live to Luzitin-Cl is increased by a factor of 30 when the PBS solution of the photosensitizer is saturated with Argon, which reduces the oxygen concentration in the solution.

Series [3] is described as follows: n-octanol:water partition coefficient (shake-flask). Format: physicochemical. How it is done:
The n-octanol:water partition coefficients (CP) were measured using a minor modification of the shake-flask method described by some of us in the literature. The modification concerned the excitation of the absorption band ca 500 nm and the collection of the fluorescence in the red/IR region.

The subject of series [4] is A-549 (human non-small cell lung cancer). In words: Cytotoxicity in the dark, resazurin assay. Type of series: cell-based. Also on record: unit not given here. The conditions noted are these: A-549, dark. Here is the method: The cell lines employed in laser irradiation were the HT-29 (human colon carcinoma), PC-3 (human prostate carcinoma), SW2 (human small cell lung cancer), A-549 (human non-small cell lung cancer). S91/I3 (mouse melanoma) and CT26 (mouse colon carcinoma). They were used both for cytotoxicity and photocytotoxicity experiments. PC-3. SW2 and S91113 cells were cultured in RPMI-1640 medium (Sigma-Aldrich, Steinheim, Germany) and HT-29, A-549 and CT26 cells were cultured in Dulbecco's Modified Eagle Medium (DMEM) (Cambrex Bioscience, Verviers, Belgium). […] For the in vitro studies, cells at 85-90% confluence, were detached with Trypsin-Versene-EDTA solution (Cambrex Bioscience, Verviers, Belgium), counted and seeded in flat-bottom 96-well plates at the desired densities.
Cell viability assay. In the end of the experiences cell viability was evaluated by the resazurin reduction assay. […] The absorbance values of each well were measured at 540 nm and 630 nm using a microplate reader Multiskan Ex (Thermo-Electron Corporation, Vartaa, Finland).
Cytotoxicity. […] After the incubation the cell viability was evaluated. […] Cytotoxicity was quantified by expressing cell death relatively to untreated cells (% of control cells). […]
A general note: Alamar Blue is a resazurin reagent that responds to reducing activity.

For series [5], the system named is PC-3 (human prostate carcinoma). In words: Cell photosensitization, 748 nm diode laser, resazurin. Type of series: cell-based. The conditions noted are these: 6 J/cm^2 diode laser irradiation at 28.5 mW.
The test system of series [6] is A-549 (human non-small cell lung carcinoma). The description is as above. Type of series: cell-based.
In series [7] the test system is CT26 (murine colon carcinoma). Described as above. Format: cell-based, mouse. The conditions noted are these: 6 J/cm^2 diode laser irradiation at 28.5 mW.

The structures appear in SMILES notation.

Experimental findings from US9670217B2, “Process for preparing chlorins and their pharmaceutical uses” (UNIVERSIDADE DE COIMBRA, priority 2008, dated 2017) are described below.

On to `CNS(=O)(=O)c1ccc(F)c(-c2c3nc(c(-c4c(F)ccc(S(=O)(=O)NC)c4F)c4ccc([nH]4)c(-c4c(F)ccc(S(=O)(=O)NC)c4F)c4nc(c(-c5c(F)ccc(S(=O)(=O)NC)c5F)c5ccc2[nH]5)CC4)CC3)c1F` [Luzitin-F2Met, 5,10,15,20-tetrakis(2,6-fluoro-3-N-methylsulfamoylphenyl)bacteriochlorin], for which the λmax in series [1] was determined as 742.5 nm. Besides, the εmax in series [1] (corrected for the chlorin content) was 78,000^d) M^−1 cm^−1. Also, in series [2], the “t1/2 (photobleaching half-life)” value is reported as 6,480 sec. In addition, the “log KOW (n-octanol:water partition coefficient)” value in series [3] came to 2.7. The “highest concentration that causes relatively no effect in viability in the dark” value in series [4] worked out at 50. Besides, the “concentration of sensitizer required to kill 90% of cells (LD90)” value is 0.5 µM in series [5], 0.5 µM in series [6] (6 J/cm^2 diode laser irradiation at 28.5 mW) and 1.0 µM in series [7]. Moreover, the cell kill in series [6] (0.5 μM, laser light dose 6 J/cm^2, incubation 18 hours) came to 100%.
